# Key:
# [1] = system: bacterial translation; conditions: ref [32],[33]; cited from earlier work
# Experimental: Bound in its primary site, MKM obstructs placement of C75 and A76 of the CCA end of a deacylated tRNA within the E-site of the large ribosomal subunit, with the most significant overlap of Phe3 of MKM with the 3’ terminal adenine of the E-tRNA (Fig. 3h).
# [2] = system: eukaryotic ribosome; conditions: ref [23],[29],[55]; cited from earlier work
# Text: Superficially, the mode of action of MKM resembles that of CHX, since MKM also stalls the elongating ribosome. However, the mechanism of translation inhibition by CHX and MKM are likely to be principally different. Because of the small size of CHX, it was proposed to co-accommodate in the E site of the eukaryotic ribosome ...
# [3] = system: K. pneumoniae ATCC 33495 and C1559; assay: C. elegans – K. pneumoniae in vivo antibiotic activity assay (survival); design: species or system K. pneumoniae in Caenorhabditis elegans; conditions: MKM 64 μg/ml or polymyxin B 25 μg/ml, 6 days, vs DMSO; Log-rank (Mantel–Cox) test
# Experimental: A C. elegans double mutant strain, AU37 (glp-4(bn2);sek-1(km4)), was used for this assay due to its enhanced pathogen infection sensitivity and temperature-sensitive sterility. The infection protocol was carried out as previously described, with slight modifications to accommodate our experimental conditions. Standard C. elegans media and protocols were used for the maintenance and growth of worms. To summarize, eggs were collected from gravid adult worms by bleaching and incubated on solid agar plates at 25 °C for 48 hours, until early adulthood. Worms were thoroughly washed with M9 buffer and transferred onto LB agar plates containing lawns of infective K. pneumoniae and incubated for another 24 hours. Worms were then washed from plates and resuspended in M9 to an approximate 2 worm per microlitre concentration. A survival assay was conducted in a 96-well plate with experimental wells containing 15 μl of worms, 80 μl S-basal (5.85 g NaCl, 1 g K2HPO4, 6 g KH2PO4, 1 ml cholesterol (5 mg/ml in ethanol), H2O to 1 litre. Sterilize by autoclaving), and 5 μl of test compound. Plates were sealed with a porous film and incubated at 25°C for a total of 7 days. The number of dead worms were counted every 24 hours to generate a Kaplan-Meier survival curve.
Molecule,inhibition of bacterial translation [1],effect on eukaryotic translation [2],survival benefit in C. elegans (in words) [3]
C/C=C\[C@H](C)[C@H]1O[C@]1(C)[C@@H](O)[C@H]1COC(=O)[C@H](O)[C@@H](OC)[C@H](C)C(=O)[C@H](C)[C@@H](O)/C(C)=C/[C@H](C)C(=O)CC[C@@H](C)C1=O [13-deoxytedanolide],do not inhibit bacterial translation,,
C[C@@H]1C[C@@H]([C@H](O)CC2CC(=O)NC(=O)C2)C(=O)[C@@H](C)C1 [cycloheximide],do not inhibit bacterial translation,arrests the elongating ribosome,
C/C(=C\[C@H](C)C(=O)C[C@H](O)CC1CC(=O)NC(=O)C1)[C@@H]1OC(=O)/C=C/CC/C=C/C=C\[C@@H]1C [lactimidomycin],do not inhibit bacterial translation,captures the ribosomes at start codons but has little effect on translation elongation or termination,
CC(=O)O[C@@H]1[C@@H](O)[C@H](O[C@H]2[C@H](OC(=O)[C@H]3CC[C@@H]4[C@H](C3)O[C@@]3(C[C@H](OC(=O)/C=C/c5ccccc5)[C@H](C)CO3)[C@]43CO3)O[C@H](C)[C@@H](O)[C@@H]2OC(C)=O)O[C@H](C)[C@H]1O [phyllanthoside],do not inhibit bacterial translation,,
polymyxin B [reference compound],,,significantly improved survival

# Reference: PMC12236907, “A Natural Depsipeptide Antibiotic that Targets the E site of the Bacterial Ribosome” (Research Square, 2025)
